The source made the active and inactive calls. Unless noted, no cut-off for these calls is given here.
Legend:
[1] = target: T1, DNA repair and recombination protein RAD54-like (Homo sapiens, UniProt Q92698); assay: RAD54 Holliday junction migration blockers – biochemical, fluorescence, cherry-picked samples, dose series, confirmation (AID 651657); type: functional
T1 sequence (Q92698 whole entry): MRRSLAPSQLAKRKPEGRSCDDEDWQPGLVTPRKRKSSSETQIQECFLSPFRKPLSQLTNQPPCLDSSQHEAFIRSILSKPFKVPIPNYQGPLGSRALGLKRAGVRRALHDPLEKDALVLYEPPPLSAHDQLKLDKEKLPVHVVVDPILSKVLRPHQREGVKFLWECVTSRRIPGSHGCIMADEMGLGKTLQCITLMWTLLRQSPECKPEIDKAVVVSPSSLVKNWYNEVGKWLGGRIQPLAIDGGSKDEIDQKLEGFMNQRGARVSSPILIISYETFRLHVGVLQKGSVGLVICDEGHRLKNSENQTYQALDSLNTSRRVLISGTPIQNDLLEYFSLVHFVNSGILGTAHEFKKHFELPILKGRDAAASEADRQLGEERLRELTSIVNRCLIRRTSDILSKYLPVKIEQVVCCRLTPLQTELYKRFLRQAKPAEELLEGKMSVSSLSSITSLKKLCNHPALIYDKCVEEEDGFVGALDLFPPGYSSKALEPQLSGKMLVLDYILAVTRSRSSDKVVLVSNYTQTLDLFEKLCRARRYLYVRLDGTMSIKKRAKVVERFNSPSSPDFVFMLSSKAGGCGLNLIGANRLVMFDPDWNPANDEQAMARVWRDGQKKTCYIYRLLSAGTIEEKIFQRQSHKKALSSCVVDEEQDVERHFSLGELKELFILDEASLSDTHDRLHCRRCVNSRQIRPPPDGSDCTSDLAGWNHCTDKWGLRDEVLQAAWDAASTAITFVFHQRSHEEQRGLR

[2] = tested on: Vero; assay: viability loss in Vero cells – cell-based, plate reader, cherry-pick samples, cytotoxicity control, dose response (AID 687020); type: functional; details: Chlorocebus sabaeus
[3] = target: T2, Beta-2 adrenergic receptor (Homo sapiens, UniProt P07550); assay: ADRB2 activation measured by internalization – cell-based, FAP fluorogen, flow cytometry, cherry pick 1, dose response (AID 588763); type: functional
[4] = target: T3, Insulin-degrading enzyme (Homo sapiens, UniProt P14735); assay: Dose Response: Fluorescence polarization-based cell-based high throughput dose response assay for inhibitors of insulin-degrading enzyme (IDE). [Related pubchem assays: 434962 (Primary screen (IDE inhibitors in singlicate)), 449730 (Counterscreen (Cytotoxicity in triplicate)), 435028 (Confirmation (IDE inhibitors in triplicate)), 434984 (Summary …; type: functional
T3 sequence (P14735 whole entry): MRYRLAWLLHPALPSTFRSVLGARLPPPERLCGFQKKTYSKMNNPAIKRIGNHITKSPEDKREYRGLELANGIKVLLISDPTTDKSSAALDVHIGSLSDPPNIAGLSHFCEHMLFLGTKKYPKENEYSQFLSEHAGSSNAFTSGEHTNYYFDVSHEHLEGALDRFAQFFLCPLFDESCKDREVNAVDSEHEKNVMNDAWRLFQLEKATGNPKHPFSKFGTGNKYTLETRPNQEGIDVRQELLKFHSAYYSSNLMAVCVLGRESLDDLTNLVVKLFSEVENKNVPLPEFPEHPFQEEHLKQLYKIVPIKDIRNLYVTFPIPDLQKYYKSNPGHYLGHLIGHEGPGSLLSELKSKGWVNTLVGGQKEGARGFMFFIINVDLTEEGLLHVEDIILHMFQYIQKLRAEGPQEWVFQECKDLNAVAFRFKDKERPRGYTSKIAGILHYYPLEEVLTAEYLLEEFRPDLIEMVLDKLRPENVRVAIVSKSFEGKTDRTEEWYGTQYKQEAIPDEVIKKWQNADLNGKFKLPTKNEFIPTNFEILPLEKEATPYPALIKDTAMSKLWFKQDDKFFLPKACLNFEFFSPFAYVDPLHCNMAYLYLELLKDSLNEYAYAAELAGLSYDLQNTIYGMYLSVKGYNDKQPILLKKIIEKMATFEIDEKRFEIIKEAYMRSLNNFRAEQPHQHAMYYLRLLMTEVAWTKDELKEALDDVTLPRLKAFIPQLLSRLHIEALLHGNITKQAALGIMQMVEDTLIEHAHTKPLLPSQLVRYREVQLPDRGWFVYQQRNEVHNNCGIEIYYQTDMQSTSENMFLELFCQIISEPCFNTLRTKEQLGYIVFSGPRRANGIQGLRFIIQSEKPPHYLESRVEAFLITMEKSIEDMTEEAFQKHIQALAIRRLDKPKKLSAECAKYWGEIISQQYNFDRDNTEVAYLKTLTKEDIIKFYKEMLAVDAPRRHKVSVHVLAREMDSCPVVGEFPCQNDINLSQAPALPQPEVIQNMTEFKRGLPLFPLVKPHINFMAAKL

[5] = target: T2, Beta-2 adrenergic receptor; assay: Dose response for HTS for Beta-2AR agonists via FAP method from Powderset3.; type: functional
[6] = Counterscreen for IDE inhibitors: Luminescence-based cell-based high throughput dose response assay to identify compounds that are cytotoxic to HEK cells. [Related pubchem assays: 434962 (Primary screen (IDE inhibitors in singlicate)), 449730 (Counterscreen (Cytotoxicity in triplicate)), 435028 (Confirmation (IDE inhibitors in triplicate)) …; type: functional; details: HEK293
[7] = target: T4, Protein RecA (Mycobacterium tuberculosis, UniProt P9WHJ3); assay: Fluorescence Cell-Free Homogeneous Dose Retest to Identify Inhibitors of RecA-Intein Splicing Activity. [Related pubchem assays (depositor defined):AID2097, AID2223, AID489010, AID492950]; type: functional
T4 sequence (P9WHJ3 whole entry): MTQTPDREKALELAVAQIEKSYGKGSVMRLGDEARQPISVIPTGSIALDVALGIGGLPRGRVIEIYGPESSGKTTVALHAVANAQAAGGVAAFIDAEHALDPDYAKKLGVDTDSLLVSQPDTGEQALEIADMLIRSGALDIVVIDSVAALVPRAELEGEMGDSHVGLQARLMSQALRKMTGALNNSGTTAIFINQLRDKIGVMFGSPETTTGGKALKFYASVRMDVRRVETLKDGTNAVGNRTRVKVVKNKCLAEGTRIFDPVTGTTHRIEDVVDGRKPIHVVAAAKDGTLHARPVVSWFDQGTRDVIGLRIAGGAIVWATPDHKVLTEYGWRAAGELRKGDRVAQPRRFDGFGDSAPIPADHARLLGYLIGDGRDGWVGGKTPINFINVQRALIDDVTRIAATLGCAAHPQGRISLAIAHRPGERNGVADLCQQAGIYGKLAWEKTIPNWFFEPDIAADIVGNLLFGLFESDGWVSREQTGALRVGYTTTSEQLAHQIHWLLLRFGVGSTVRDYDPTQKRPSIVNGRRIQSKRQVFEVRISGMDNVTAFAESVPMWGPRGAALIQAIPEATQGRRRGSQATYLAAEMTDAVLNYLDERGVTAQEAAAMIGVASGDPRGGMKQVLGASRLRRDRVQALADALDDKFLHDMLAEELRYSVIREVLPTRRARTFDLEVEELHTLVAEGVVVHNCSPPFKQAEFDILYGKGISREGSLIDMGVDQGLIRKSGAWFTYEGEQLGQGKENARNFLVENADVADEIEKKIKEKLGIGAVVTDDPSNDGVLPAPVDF

[8] = target: Arf-GAP with SH3 domain, ANK repeat and PH domain-containing protein 1 (Homo sapiens, UniProt Q9ULH1); type: functional;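 note: biochemical fluorescence polarization dose–response screen measuring inhibition of ASAP1; ASAP1 GAP domain stimulating GTP hydrolysis by truncated human ARF1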
[9] = target: T5, Apoptotic protease-activating factor 1 (Homo sapiens, UniProt O14727); type: functional
T5 sequence (O14727 whole entry): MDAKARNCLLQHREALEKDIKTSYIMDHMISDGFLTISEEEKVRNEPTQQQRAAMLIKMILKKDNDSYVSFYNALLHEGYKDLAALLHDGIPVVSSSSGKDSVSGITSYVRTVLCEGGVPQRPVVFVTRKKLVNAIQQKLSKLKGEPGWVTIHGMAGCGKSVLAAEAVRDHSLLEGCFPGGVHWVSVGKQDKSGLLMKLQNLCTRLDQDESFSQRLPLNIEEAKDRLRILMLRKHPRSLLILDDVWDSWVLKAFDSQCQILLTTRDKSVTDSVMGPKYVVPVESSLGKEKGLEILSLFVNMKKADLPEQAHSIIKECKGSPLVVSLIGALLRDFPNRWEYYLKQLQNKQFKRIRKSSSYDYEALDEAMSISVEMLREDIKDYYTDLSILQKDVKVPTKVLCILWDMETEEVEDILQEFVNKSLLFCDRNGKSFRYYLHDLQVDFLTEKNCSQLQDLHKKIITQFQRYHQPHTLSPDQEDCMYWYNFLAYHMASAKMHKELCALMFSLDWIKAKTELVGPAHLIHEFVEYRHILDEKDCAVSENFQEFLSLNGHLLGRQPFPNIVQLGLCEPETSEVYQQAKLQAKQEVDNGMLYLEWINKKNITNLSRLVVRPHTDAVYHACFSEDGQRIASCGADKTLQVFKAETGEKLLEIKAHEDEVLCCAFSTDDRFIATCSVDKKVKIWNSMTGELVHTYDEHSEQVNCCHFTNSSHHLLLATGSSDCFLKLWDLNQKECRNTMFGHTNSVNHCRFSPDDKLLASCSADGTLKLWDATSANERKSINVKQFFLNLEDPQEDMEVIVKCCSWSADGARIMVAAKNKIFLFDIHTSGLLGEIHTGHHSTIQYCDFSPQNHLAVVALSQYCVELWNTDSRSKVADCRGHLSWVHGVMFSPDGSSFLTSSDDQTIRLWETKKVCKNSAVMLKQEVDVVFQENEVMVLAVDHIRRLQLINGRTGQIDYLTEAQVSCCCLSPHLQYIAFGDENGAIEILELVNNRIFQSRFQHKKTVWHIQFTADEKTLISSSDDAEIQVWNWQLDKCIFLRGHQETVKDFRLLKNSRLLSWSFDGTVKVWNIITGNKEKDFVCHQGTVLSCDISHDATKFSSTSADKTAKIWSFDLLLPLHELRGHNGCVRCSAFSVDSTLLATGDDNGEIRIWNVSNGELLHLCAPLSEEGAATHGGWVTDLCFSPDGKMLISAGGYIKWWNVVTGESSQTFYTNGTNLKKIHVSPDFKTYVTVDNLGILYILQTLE

[10] = target: T6, Replicative DNA helicase DnaB (Mycobacterium tuberculosis, UniProt P9WMR3); assay: DnaB intein splicing inhibitors, dose response, biochemical, cell-free fluorescence (AID 449749); type: functional
T6 sequence (P9WMR3 whole entry): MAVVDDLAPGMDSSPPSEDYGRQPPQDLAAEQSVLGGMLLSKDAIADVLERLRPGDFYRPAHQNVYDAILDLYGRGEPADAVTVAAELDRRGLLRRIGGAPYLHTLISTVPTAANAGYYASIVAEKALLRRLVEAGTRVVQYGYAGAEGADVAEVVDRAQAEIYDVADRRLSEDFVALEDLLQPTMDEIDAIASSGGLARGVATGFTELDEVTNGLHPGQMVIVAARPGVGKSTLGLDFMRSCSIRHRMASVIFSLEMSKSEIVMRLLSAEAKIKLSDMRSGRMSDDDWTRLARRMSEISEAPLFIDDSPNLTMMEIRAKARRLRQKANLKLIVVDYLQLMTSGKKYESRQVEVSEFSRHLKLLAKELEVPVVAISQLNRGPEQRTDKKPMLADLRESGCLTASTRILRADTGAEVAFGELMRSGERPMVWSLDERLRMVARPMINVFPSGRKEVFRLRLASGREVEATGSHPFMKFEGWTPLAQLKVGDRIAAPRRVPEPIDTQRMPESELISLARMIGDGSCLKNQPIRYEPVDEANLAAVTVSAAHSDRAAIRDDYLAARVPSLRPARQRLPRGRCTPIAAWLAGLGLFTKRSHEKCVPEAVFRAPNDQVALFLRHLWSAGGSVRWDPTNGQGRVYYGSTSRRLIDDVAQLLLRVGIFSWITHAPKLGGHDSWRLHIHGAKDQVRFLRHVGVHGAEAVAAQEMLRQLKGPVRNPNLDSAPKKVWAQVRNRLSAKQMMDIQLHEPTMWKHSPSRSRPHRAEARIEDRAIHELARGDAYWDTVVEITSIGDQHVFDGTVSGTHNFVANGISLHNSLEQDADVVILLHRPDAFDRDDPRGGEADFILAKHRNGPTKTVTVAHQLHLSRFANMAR

[11] = target: T7, Tyrosyl-DNA phosphodiesterase 2 (Homo sapiens, UniProt O95551); assay: potency against TDP2 phosphodiesterase activity – biochemical, epi absorbance, IC50, dose response (AID 743297)
T7 sequence (O95551 whole entry): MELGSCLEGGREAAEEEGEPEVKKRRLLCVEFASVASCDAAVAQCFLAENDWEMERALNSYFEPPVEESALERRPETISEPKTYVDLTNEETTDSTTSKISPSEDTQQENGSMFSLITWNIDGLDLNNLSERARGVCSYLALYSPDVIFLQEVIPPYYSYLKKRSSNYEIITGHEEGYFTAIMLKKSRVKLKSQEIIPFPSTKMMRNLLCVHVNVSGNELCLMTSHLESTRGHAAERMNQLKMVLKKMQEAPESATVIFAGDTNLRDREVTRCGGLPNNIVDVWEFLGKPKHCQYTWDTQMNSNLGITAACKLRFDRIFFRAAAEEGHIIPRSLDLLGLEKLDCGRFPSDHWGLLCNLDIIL

[12] = Inhibition of T. cruzi Tulahuen strain amastigotes in L-6 muscle cells Measured in Cell-Based and Microorganism Combination System Using Plate Reader - 2138-03_Inhibitor_Dose_CherryPick_Activity.; type: functional; details: Rattus norvegicus, L6
[13] = Inhibition of Plasmodium falciparum NF54 Measured in Cell-Based System Using Plate Reader - 2138-11_Inhibitor_Dose_CherryPick_Activity.; type: functional
[14] = antileishmanial activity on axenic amastigotes – plate reader, cherry pick, dose response (AID 651891); type: functional, cell-based; details: Leishmania donovani
[15] = African trypanosome bloodstream form growth inhibition – STIB900 strain, plate reader, cherry pick, dose response (AID 651893); type: functional, cell-based, Trypanosoma brucei rhodesiense; details: Trypanosoma brucei
[16] = L6 myocyte viability loss – cell-based, plate reader, cherry-pick, cytotoxicity control, dose response (AID 651896); type: functional
[17] = intracellular Trypanosoma cruzi inhibitors in host cells – cell-based, plate reader, cherry-pick samples, set 3, dose response (AID 651818); type: functional;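 note: compounds incubated with infected cells for about four days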

T2 sequence (P07550 whole entry): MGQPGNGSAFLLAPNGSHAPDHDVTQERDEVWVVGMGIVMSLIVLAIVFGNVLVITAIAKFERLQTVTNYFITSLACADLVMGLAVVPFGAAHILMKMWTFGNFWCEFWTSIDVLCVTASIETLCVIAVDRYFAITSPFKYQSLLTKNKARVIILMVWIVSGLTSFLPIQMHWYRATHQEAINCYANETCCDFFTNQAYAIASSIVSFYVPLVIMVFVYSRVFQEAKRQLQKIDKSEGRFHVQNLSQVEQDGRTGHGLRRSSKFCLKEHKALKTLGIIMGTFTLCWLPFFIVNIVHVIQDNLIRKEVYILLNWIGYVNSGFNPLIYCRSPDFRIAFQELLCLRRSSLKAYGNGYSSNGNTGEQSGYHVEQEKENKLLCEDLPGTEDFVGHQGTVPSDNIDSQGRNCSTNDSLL
Sequence of Arf-GAP with SH3 domain, ANK repeat and PH domain-containing protein 1 (Q9ULH1 whole entry, the tested form may be a part): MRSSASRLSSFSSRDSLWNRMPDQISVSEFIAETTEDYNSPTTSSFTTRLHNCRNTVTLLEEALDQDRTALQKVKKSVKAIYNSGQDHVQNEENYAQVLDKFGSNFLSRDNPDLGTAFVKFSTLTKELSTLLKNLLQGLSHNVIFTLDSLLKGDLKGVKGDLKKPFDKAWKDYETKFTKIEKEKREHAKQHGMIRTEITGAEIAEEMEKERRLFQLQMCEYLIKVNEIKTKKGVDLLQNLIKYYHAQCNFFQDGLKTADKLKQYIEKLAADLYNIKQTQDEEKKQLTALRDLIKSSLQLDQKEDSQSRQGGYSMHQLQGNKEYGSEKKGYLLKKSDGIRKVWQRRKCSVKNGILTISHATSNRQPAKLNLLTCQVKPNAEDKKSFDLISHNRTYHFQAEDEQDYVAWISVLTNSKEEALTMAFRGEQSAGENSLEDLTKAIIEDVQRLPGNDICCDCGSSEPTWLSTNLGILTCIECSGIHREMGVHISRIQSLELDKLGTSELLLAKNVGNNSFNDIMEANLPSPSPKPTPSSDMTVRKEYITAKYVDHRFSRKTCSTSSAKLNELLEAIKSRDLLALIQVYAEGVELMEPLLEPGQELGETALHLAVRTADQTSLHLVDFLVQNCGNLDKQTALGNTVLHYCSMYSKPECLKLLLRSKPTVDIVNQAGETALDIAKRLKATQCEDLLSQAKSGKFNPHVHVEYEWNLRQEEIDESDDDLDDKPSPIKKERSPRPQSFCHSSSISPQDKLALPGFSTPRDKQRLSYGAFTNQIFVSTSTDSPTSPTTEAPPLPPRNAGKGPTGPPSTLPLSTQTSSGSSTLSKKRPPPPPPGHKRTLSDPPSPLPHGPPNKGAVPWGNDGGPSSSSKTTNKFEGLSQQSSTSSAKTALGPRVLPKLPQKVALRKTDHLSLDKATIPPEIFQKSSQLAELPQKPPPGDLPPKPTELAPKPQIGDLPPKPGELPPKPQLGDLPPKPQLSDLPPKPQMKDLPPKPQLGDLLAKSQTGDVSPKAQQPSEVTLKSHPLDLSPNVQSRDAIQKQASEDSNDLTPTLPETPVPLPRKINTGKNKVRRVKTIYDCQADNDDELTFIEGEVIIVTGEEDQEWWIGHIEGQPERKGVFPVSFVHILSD

## Cc1ccc(-c2nc(N3CCN(C)CC3)c3ccccc3n2)cc1
[1]
  AC50: 41.3 µM (active)
[2]
  AC50: 26.8 µM (active)

## Clc1cccc(-c2nnc(SCc3nc4ccccc4[nH]3)n2Cc2ccco2)c1
[3]
  EC50: 10.1 µM (inactive)
[4]
  IC50: 2.57 µM (active)
[5]
  EC50: 8.09 µM (active)
[6]
  IC50: 22.4 µM (not active)

## COc1ccccc1Nc1cc2cc(Br)ccc2c(=O)[nH]1
[7]
  EC50: 23.3 µM (active)
[8]
  IC50: 165 µM (inactive)
[9]
  IC50: 1.51 µM (active)
[10]
  AC50: > 120 µM (inactive)
[11]
  IC50: 10.7 µM (inactive)

## COc1ccc(CN(C)C[C@@H]2Oc3c(NC(=O)c4ccncc4)cccc3C(=O)N([C@H](C)CO)C[C@H]2C)cc1
[12]
  IC50: 5.91 µM (inactive)
[13]
  IC50: 5.91 µM (inactive)
[14]
  IC50: > 100 µM (inactive)
[15]
  IC50: 2.62 µM (inactive)
[16]
  IC50: > 100 µM (inactive)
[17]
  AC50: 361 nM (active)

Source: ChEMBL document CHEMBL1201862, “PubChem BioAssay data set” (2004)
